# Patent publication US12655394B2, “Ovarian cancer organoid culture” (MAX-PLANCK-GESELLSCHAFT ZUR FÖRDERUNG DER WISSENSCHAFTEN …, priority 2018, dated 2026)
# “Also recorded” adds a separate entry of the source.
# B1: Wnt 3a: Wnt protein, e.g. human Wnt 3a (RefSeq NP_149122) (protein, UniProt P56704 19-352, looked up)
# Protein Wnt-3a: SYPIWWSLAVGPQYSSLGSQPILCASIPGLVPKQLRFCRNYVEIMPSVAEGIKIGIQECQHQFRGRRWNCTTVHDSLAIFGPVLDKATRESAFVHAIASAGVAFAVTRSCAEGTAAICGCSSRHQGSPGKGWKWGGCSEDIEFGGMVSREFADARENRPDARSAMNRHNNEAGRQAIASHMHLKCKCHGLSGSCEVKTCWWSQPDFRAIGDFLKDKYDSASEMVVEKHRESRGWVETLRPRYTYFKVPTERDLVYYEASPNFCEPNPETGSFGTRDRTCNVSSHGIDGCDLLCCGRGHNARAERRREKCRCVFHWCCYVSCQECTRVYDVHTCK
# Tests used:
# [1] = test system: organoid cell lines ORG1 and ORG2; experiment: Carboplatin treatment of organoid cancer lines, cell viability by luminescence (Cell Titer Glow 3D); type: cell-based, human; details: patient-derived HGSC organoid lines, triplicates, FIG. 5
# Description: Cell vialiability (y axis) was determined proportional to the strength of luminiscence signal (Cell Titer® Glow 3D Promega). […] Immunofluorescence analysis of the key structural and functional biomarkers confirmed that organoids match native tumor tissue in phenotype, e.g. PAX8 confirming Mullerean lineage, EpCAM, p53 and p16 (FIG. 4). All tested organoid cultures were matched in phenotype to the fragment of native tumor processed and stained in standard procedure which was used for clinical diagnosis. Ovarian cancer cancer organoids mostly lack central cavities in contrast to fallopian tube organoids which are built of polarized epithelial monolayers. This is expected as histological atypia and stratification are present already in the early stages of the carcinogenesis in the fallopian tube (Shaw et al 2009, Modern Pathology 22, 1135-1138). Panel sequencing of paired organoid culture and tissue confirmed that the tested organoids recapitulate cancer tissue composition also on the genomic level. Importantly cultures can be expanded to multi-well format to enable high throughput experimental set up.
# [2] = test system: ovarian cancer stem cells; experiment: Establishment of ovarian cancer organoid lines with exogenous Wnt 3a supplementation; type: cell-based, human; details: all established lines grew in Wnt3a-negative media
# Description: • Adv. +++: Advanced F12 Medium+HEPES (6 ml)+Glutamax (5 ml)+5% fetal calf serum (FCS) • Adv. ++: Advanced F12 Medium+HEPES (6 ml)+Glutamax (5 ml) • Cut tissue with a scissor in small pieces and then mince further with scalpel for 3-5 minutes • Collect all fragments, incubate with 2 ml Collagenase Type 1+2 ml Collagenase type II and transfer to a 6 well plate, • Incubate fragments for 45 min at 37° C. 5% CO2, • Add 5 ml Adv +++ and transfer in to a 50 ml Falcon tube, • Vortex vigorously for 30 seconds, • Let pieces settle down, take supernatant and transfer in to a fresh tube, • Add again 5 ml Adv +++, mix with a pipette, • Let pieces settle down, take supernatant and transfer in to a fresh tube, • Centrifuge for 5 min at 400 rpm, • Discard supernatant, • Prepare 10 ml Adv +++, add 30 μl Y-27632 and 10 μl hEGF (final conc. 10 ng/ml), • Resuspend cell pellet in medium, • Seed cell in a flask, • Incubate at 5% CO2 at 37° C. and grow cells 3-5 days prior to transfer to 3D culture. […]
molecule,measurement,setting,value
N.N.O=C([O-])C1(C(=O)[O-])CCC1.[Pt+2] [carboplatin],response to carboplatin treatment (cell viability),[1],differences in responsivness and kinetics; also recorded: individual patient profiles in their response
B1,effect of exogenous supplementation on ovarian cancer stem cells,[2],detrimental
